Results from the SangsterLogP compilation.

assay: not given; conditions: pH 7.4

Compound	logD
O=C(Cc1c[nH]c2ccc(Br)cc12)N1CCN(c2ccc([N+](=O)[O-])c3nonc23)CC1	3
O=C(CCc1cccc2c1OCO2)N1CCC2(CC1)C(=O)NCN2c1ccccc1	2.8
COc1cc([N+](=O)[O-])cc(CC(=O)N2CCC(n3c(=O)[nH]c4ccccc43)CC2)c1OC	2.4
COc1cc([N+](=O)[O-])cc(C=CC(=O)N2CCC3(CC2)C(=O)NCN3c2ccccc2)c1OC	3
O=C(OCc1ccc2snnc2c1)N1CCC2(CC1)C(=O)NCN2c1ccccc1	3.4

assay: not given; conditions: not given

Compound	logP
FC(F)(Cl)C(F)(F)Cl	2.66
FC(F)(F)C(F)(F)Cl	2.23
FCC(F)(Cl)Cl	1.51
FC(F)(Cl)Cl	1.93

assay: method code SF-AS, from PMID: 640322; conditions: pH 4.0

Compound	logD
NC(=O)N(CCCN(N=O)C(N)=O)N=O	-0.3
CCCN(N=O)C(N)=O	0.3
CC(C)CN(N=O)C(N)=O	1.04
CCN(N=O)C(N)=O	-0.15

assay: not given; conditions: not given; remark: another data set of the same source

Compound	logP
CCCCCC[N+](=O)[O-]	2.7
CC(C)[N+](=O)[O-]	0.8
CCC(C)[N+](=O)[O-] (configuration not stated)	1.2
CC(C)C[N+](=O)[O-]	1.4

assay: not given; conditions: not given; remark: another data set of the same source

logP	Compound
2.3	NC(=O)c1ccc2c(ccn2CC(=O)Oc2ccccc2-c2ccccc2)c1
7.1	CCCCCCCCCCOc1ccc(OC(=O)Cn2ccc3cc(C(=O)O)ccc32)cc1
5.5	CCCCCCCCc1ccc(OC(=O)Cn2ccc3cc(C(N)=O)ccc32)cc1
3.2	O=C(Cn1ccc2cc(C(=O)O)ccc21)Oc1ccc(-c2ccccc2)cc1
3.1	O=C(Cn1ccc2cc(C(=O)O)ccc21)Oc1cccc(-c2ccccc2)c1

assay: not given; conditions: not given; remark: another data set of the same source

logP	Compound
4.66	CCN1C=CCC(C(=O)OC2CCC3C4CCc5cc(O)ccc5C4CC23C)=C1 (configuration not stated)
4.89	CC12CC3c4ccc(O)cc4CCC3C1CCC2OC(=O)C1=CN(CCCO)C=CC1 (configuration not stated)
4.79	CCCN1C=CCC(C(=O)OC2CCC3C4CCc5cc(O)ccc5C4CC23C)=C1 (configuration not stated)
5.07	CCCCCCN1C=CCC(C(=O)OC2CCC3C4CCc5cc(O)ccc5C4CC23C)=C1 (configuration not stated)
5.39	CC12CC3c4ccc(O)cc4CCC3C1CCC2OC(=O)C1=CN(Cc2ccccc2)C=CC1 (configuration not stated)

assay: not given; conditions: not given; remark: another data set of the same source

logP	Compound
3.05	CCOCn1c(S)nc(=O)c(CC)c1Sc1ccccc1
2.11	CCOCn1c(Sc2ccccc2)c(CC)c(=O)[nH]c1=O
2.78	CCOCn1c(Cc2cc(C)cc(C)c2)c(CC)c(=O)[nH]c1=O
3.23	CCc1c(Sc2ccccc2)n(COCc2ccccc2)c(=O)[nH]c1=O
2.35	CCOCn1c(Cc2ccccc2)c(C(C)C)c(=O)[nH]c1=O

assay: method code SF-GLC, from DOI: 10.1021/es60155a010; conditions: not given

Compound	logP
CCCCC(CC)COP(=O)(OCC(CC)CCCC)OCC(CC)CCCC (configuration not stated)	4.23
CC(C)(C)c1ccc(OP(=O)(Oc2ccccc2)Oc2ccccc2)cc1	5.12
CC(C)CCCCCCCOP(=O)(Oc1ccccc1)Oc1ccccc1	5.44
CC(C)c1ccc(OP(=O)(Oc2ccccc2)Oc2ccccc2)cc1	5.31
Cc1ccc(OP(=O)(Oc2ccc(C)cc2)Oc2ccc(C)cc2)cc1	5.11

assay: method code SF-HPLC, from DOI: 10.1002/jlac.1995199512305; conditions: not given

logP	Compound
0.79	Cc1cn(C2CC(N=[N+]=[N-])C(COP(=O)(OCC3OC(n4cc(C)c(=O)[nH]c4=O)CC3N=[N+]=[N-])C(O)c3cccc([N+](=O)[O-])c3)O2)c(=O)[nH]c1=O (configuration not stated)
0.79	Cc1cn(C2CC(N=[N+]=[N-])C(COP(=O)(OCC3OC(n4cc(C)c(=O)[nH]c4=O)CC3N=[N+]=[N-])C(O)c3ccccc3[N+](=O)[O-])O2)c(=O)[nH]c1=O (configuration not stated)
0.73	Cc1cn(C2CC(N=[N+]=[N-])C(COP(=O)(OCC3OC(n4cc(C)c(=O)[nH]c4=O)CC3N=[N+]=[N-])C(O)c3c([N+](=O)[O-])cccc3[N+](=O)[O-])O2)c(=O)[nH]c1=O (configuration not stated)
0.79	Cc1cn(C2CC(N=[N+]=[N-])C(COP(=O)(OCC3OC(n4cc(C)c(=O)[nH]c4=O)CC3N=[N+]=[N-])C(O)c3ccccc3)O2)c(=O)[nH]c1=O (configuration not stated)
0.49	Cc1cn(C2CC(N=[N+]=[N-])C(COP(=O)(OCC3OC(n4cc(C)c(=O)[nH]c4=O)CC3N=[N+]=[N-])C(O)c3ccc(C#N)cc3)O2)c(=O)[nH]c1=O (configuration not stated)

assay: method code SF, from DOI: 10.1021/jm020886c, PMID: 12852752; conditions: pH 7.4

logD	Compound
1.34	O=c1[nH]c2c(O)ccc(CCNCCCS(=O)(=O)CCCOCc3ccccc3)c2s1
1.24	CN(CCCNCCc1ccc(O)c2[nH]c(=O)sc12)S(=O)(=O)CCCOCCc1ccccc1
3.53	CN(CCCSCCOCCc1ccccc1)CCc1ccc(O)c2[nH]c(=O)sc12
3.44	CC(C)(CNCCc1ccc(O)c2[nH]c(=O)sc12)CSCCOCCc1ccccc1
1.13	O=c1[nH]c2c(O)ccc(CCNCCCS(=O)(=O)CCOCCc3ccccc3)c2s1

assay: method code SF, from DOI: 10.1021/jm00167a034, PMID: 2329572; conditions: pH 7.4

logD	Compound
0.86	Cc1cn([C@H]2C[C@H](N=[N+]=[N-])[C@@H](COC(=O)C3=CN(C)C=CC3)O2)c(=O)[nH]c1=O
0.96	Cc1cn([C@H]2C[C@H](N=[N+]=[N-])[C@@H](COC(=O)CN3CCN(c4ccccc4)CC3)O2)c(=O)[nH]c1=O
1.25	CC1=C(/C=C/C(C)=C/C=C/C(C)=C/C(=O)OC[C@H]2O[C@@H](n3cc(C)c(=O)[nH]c3=O)C[C@@H]2N=[N+]=[N-])C(C)(C)CCC1
0.52	Cc1cn(C2CC(N=[N+]=[N-])C(COC(=O)C(N)Cc3ccccc3)O2)c(=O)[nH]c1=O (configuration not stated)
0.34	Cc1cn([C@H]2C[C@H](N=[N+]=[N-])[C@@H](COC(=O)CN3CCOCC3)O2)c(=O)[nH]c1=O

assay: method code SF-HPLC, from DOI: 10.1023/a:1015956705293, PMID: 3244625; conditions: not given

logP	Compound
2.79	C[C@]12CCC(=O)C=C1CC[C@@H]1[C@@H]2[C@@H](O)C[C@@]2(C)[C@H]1CC[C@]2(O)C(=O)COC(=O)CCCCCO
2.58	COC(=O)CCC(=O)OCC(=O)C1(O)CCC2C3CCC4=CC(=O)CCC4(C)C3C(O)CC21C (configuration not stated)
2.03	CN(C)C(=O)CCC(=O)OCC(=O)[C@@]1(O)CC[C@H]2[C@@H]3CCC4=CC(=O)CC[C@]4(C)[C@H]3[C@@H](O)C[C@@]21C

same assay, conditions: pH 2.5

logD	Compound
2.11	CC12CCC(=O)C=C1CCC1C2C(O)CC2(C)C1CCC2(O)C(=O)COC(=O)CCC(=O)O (configuration not stated)

same assay, conditions: pH 3.3

logD	Compound
3.26	C[C@]12CCC(=O)C=C1CC[C@@H]1[C@@H]2[C@@H](O)C[C@@]2(C)[C@H]1CC[C@]2(O)C(=O)COC(=O)CCCCCC(=O)O

assay: method code SF-AS, from DOI: 10.1211/0022357001777513, PMID: 11186244; conditions: pH 7.3

logD	Compound
4.58	Oc1ccccc1-c1c2nc(c(-c3ccccc3O)c3ccc([nH]3)c(-c3ccccc3O)c3nc(c(-c4ccccc4O)c4ccc1[nH]4)C=C3)C=C2
4.93	OCC(O)COc1ccc(-c2c3nc(c(-c4ccc(OCC(O)CO)cc4)c4ccc([nH]4)c(-c4ccc(OCC(O)CO)cc4)c4nc(c(-c5ccc(OCC(O)CO)cc5)c5ccc2[nH]5)C=C4)C=C3)cc1 (configuration not stated)
4.67	OCC(O)COc1ccccc1-c1c2nc(c(-c3ccccc3OCC(O)CO)c3ccc([nH]3)c(-c3ccccc3OCC(O)CO)c3nc(c(-c4ccccc4OCC(O)CO)c4ccc1[nH]4)C=C3)C=C2 (configuration not stated)
2.51	OCC(O)COc1c(F)ccc(-c2c3nc(c(-c4ccc(F)c(OCC(O)CO)c4F)c4ccc([nH]4)c(-c4ccc(F)c(OCC(O)CO)c4F)c4nc(c(-c5ccc(F)c(OCC(O)CO)c5F)c5ccc2[nH]5)C=C4)C=C3)c1F (configuration not stated)
4.6	Oc1cccc(-c2c3nc(c(-c4cccc(O)c4F)c4ccc([nH]4)c(-c4cccc(O)c4F)c4nc(c(-c5cccc(O)c5F)c5ccc2[nH]5)C=C4)C=C3)c1F

assay: from Jayashree, Bs.; Sahu, A.; MM, S.; Venugopala, K. (2006). Synthesis, characterization and determination of partition coefficient of some triazolo thiadiazinyl chlorocoumarin derivatives for their …; conditions: pH 7.4

logD	Compound
1.18	O=c1oc2ccc(Cl)cc2cc1C1=Nn2c(nnc2-c2ccncc2)SC1
1.53	O=c1oc2ccc(Cl)cc2cc1C1=Nn2c(nnc2-c2ccccc2Cl)SC1
1.33	O=c1oc2ccc(Cl)cc2cc1C1=Nn2c(COc3ccc(Cl)cc3)nnc2SC1
1.51	O=c1oc2ccc(Cl)cc2cc1C1=Nn2c(nnc2-c2ccc(Br)cc2)SC1
1.49	O=c1oc2ccc(Cl)cc2cc1C1=Nn2c(nnc2-c2ccc(Cl)cc2)SC1
